In paper PMC4448987, “A neuroligin-1-derived peptide stimulates phosphorylation of the NMDA receptor NR1 subunit and rescues MK-801-induced decrease in long-term potentiation and memory impairment” (Pharmacology Research & Perspectives, 2015):

Assays:
[1] = tested on: NMDA receptor NR1 subunit (serine 897); assay: NMDA receptor phosphorylation assay (immunoblot, anti-phospho-Ser897-NR1) in cultured cortical neurons; type: cell-based, Wistar rat; details: cultured rat cortical neurons, 0.1, 0.3, 1 and 2.7 μmol/L for 5 min, eight independent experiments
Procedure: Cortical neurons were obtained from Wistar rat embryos at embryonic day 19, of both sexes, basically as previously described (Maar et al. [1997]) (see Data S1). Briefly, animals were rendered unconscious by concussive stunning and euthanized by cervical dislocation. Hereafter, the embryonic brains were collected and cortical neurons were dissociated and seeded in 60-mm tissue culture dishes coated with 1 μg/mL of poly-D-lysine (Sigma-Aldrich, St. Louis, MO) and grown for 8 days before treatment. Then, the cultures were stimulated with either the NL1 ectodomain (0.2, 0.6, 1.8, and 5.4 nmol/L) or neurolide-1 (0.1, 0.3, 1, and 2.7 μmol/L) for 5 min. The cells were lysed, and proteins were resolved by sodium dodecyl sulfate-polyacrylamide gel electrophoresis followed by immunoblotting using rabbit anti-Ser897-NR1 antibody (1:500; Millipore, Billerica, MA), mouse anti-β-tubulin antibody (1:50,000; Sigma-Aldrich), and IRDye secondary antibodies (Odyssey, Lincoln, NE). The bands were visualized using the Odyssey CLX Infrared Imaging System (Odyssey). Four independent experiments with stimulation by NL1 ectodomain and eight independent experiments with stimulation by neurolide-1 were performed.

hippocampal neurons = details: NX-1β expression-dependent, in contrast to the peptide without the B insert; ref Gjorlund et al. [2012]; cited from earlier work
Excerpt: (§1) We recently investigated the functional role of the NL1 B insert using a peptide, termed neurolide-1, that encompasses the NL1-binding site for NX1, including the B insert.

NX-1β = details: ref Gjorlund et al. [2012]; cited from earlier work
Excerpt: as §1

[2] = in vivo intra-hippocampal treatment; ref van der Kooij et al. [2014]; cited from earlier work
Excerpt: as §1

adult male Wistar rats = assay: Social recognition test; type: in vivo; details: rat
Procedure: Social memory in animals reflects the ability to recognize conspecifics as familiar or unfamiliar. The social recognition test was performed basically as described previously (Secher et al. [2006]), (see Data S1). […] Rats were handled 5 days prior to the experiment and habituated to the transparent test cages for 1 h before start of experiment. The tests included three trials (T1–3), separated by intertribal periods of 2 and 24 h, with the test rat being introduced to a 3-week-old juvenile conspecific (40–50 g; Charles River) for 4 min each time. Investigative behavior was recorded and used to calculate recognition ratios (RR) as previously described (Kogan et al. [2000]). Retention periods longer than 1 h are believed to result in no or only minimal retention of social memory (Popik and van Ree [1998]; Secher et al. [2006]). Terminally, rats were rapidly and humanely rendered unconscious by concussive stunning and euthanized by cervical dislocation.
Social memory in animals reflects the ability of individuals to recognize conspecifics as familiar or unfamiliar. The animals were handled for 5 days prior to the experiments to minimize stress, habituated to the test cage, and trained to interact with a juvenile rat. Two groups of adult rats were used: a control group and a neurolide-1-treated group. Neurolide-1 (10 mg/kg) or vehicle (saline, 1 ml/kg) was injected subcutaneously (s.c.) two times, 24 and 2 h before the experiment. […] In the first trial, a 3-week-old juvenile male rat was introduced to the experimental adult rat for 4 min, and the time spent investigating the juvenile (e.g., licking, sniffing, chewing, and close following) was scored. Two hours later, a second trial was performed by reintroducing the same juvenile to the test rat to for 4 min, and investigative behavior was recorded. From the two trials, a recognition ratio (RR) was calculated as T2 / (T1 + T2), in which T1 and T2 were the times spent investigating the juvenile during the first and second trials, respectively. […]

hippocampal slices (LTP) = assay: LTP in acute hippocampal slices, peptide added directly to aCSF; design: species or system mice; details: neurolide-1 alone, 1 µmol/L added to running artificial CSF during baseline before LTP induction
Procedure: Measurements were made in oxygenated aCSF at room temperature (1.1 mL/min). Schaeffer collaterals were stimulated with a bipolar concentric electrode (TM33CCNON; World Precision Instruments, Sarasota, FL). The field potential in the stratum radiatum of the CA1 area of the hippocampus was recorded with an extracellular glass microelectrode (4–6 MΩ, filled with aCSF), positioned at least 500 μm away from the stimulation electrode. The stimulus intensity was set 0.03 mA above the threshold. After a 30-min baseline was obtained with stimulation at 0.05 Hz, long-term potentiation (LTP) was induced by stimulating the Schaeffer collaterals at 100 Hz for 1 s four times at 20 s intervals. A new baseline was established over the following 30 min. Potentiation was estimated by comparing the rising slope of the field excitatory postsynaptic potential (fEPSP) before and 25–30 min after high-frequency stimulation.
Supplementary file prp20003-e00126-sd2.tif: Figure S1. Effect of neurolide-1 on LTP in acute hippocampal slices. Neurolide-1 at a concentration of 1 µmol/L was added directly to the running artificial CSF during baseline measurement before the induction of LTP.
Supplementary Figure S1. Effect of neurolide-1 on LTP in acute hippocampal slices. Neurolide-1 at a concentration of 1 µM was added directly to the running artificial CSF during baseline measurement before the induction of LTP.

SEGNRWSNSTKGLFQRA [neurolide-1]
NR1 phosphorylation on serine 897 [1]: induced NR1 phosphorylation proportionally to the increase in peptide concentration | neurite outgrowth in hippocampal neurons (hippocampal neurons): induce neurite outgrowth | binding to NX-1β (NX-1β): bind NX-1β | sociability and aggression [2]: did not demonstrate such effects | long-term social memory, 24 h after the first trial (adult male Wistar rats; 10 mg/kg s.c. 24 and 1 h before first trial, n = 12): did not exhibit an improvement in social memory | short-term social memory (recognition ratio), intertrial interval 2 h (adult male Wistar rats; 10 mg/kg s.c. 24 and 1 h before first trial, same juvenile, n = 12, P < 0.001 vs control): enhanced social memory | recognition ratio with a new unfamiliar juvenile in the second trial (adult male Wistar rats; 10 mg/kg s.c. twice, control test, compared with vehicle group or theoretical value 0.5, n = 12): did not lead to a decrease in the RR | effect on LTP, direct treatment of hippocampal slices (hippocampal slices (LTP)): did not affect LTP
